# What was measured:
# NS3-NS4 [1] = target: T1, NS3-NS4 (Hepatitis C virus genotype 1a, UniProt P27958); test: NS3-NS4 activity, IC50 (Example 37, Table 8); format: biochemical
# NS3-NS4 [2] = target: T1, NS3-NS4; test: cell-based; conditions: EC50, NS3-NS4 activity
# T1 sequence (P27958 1027-1657): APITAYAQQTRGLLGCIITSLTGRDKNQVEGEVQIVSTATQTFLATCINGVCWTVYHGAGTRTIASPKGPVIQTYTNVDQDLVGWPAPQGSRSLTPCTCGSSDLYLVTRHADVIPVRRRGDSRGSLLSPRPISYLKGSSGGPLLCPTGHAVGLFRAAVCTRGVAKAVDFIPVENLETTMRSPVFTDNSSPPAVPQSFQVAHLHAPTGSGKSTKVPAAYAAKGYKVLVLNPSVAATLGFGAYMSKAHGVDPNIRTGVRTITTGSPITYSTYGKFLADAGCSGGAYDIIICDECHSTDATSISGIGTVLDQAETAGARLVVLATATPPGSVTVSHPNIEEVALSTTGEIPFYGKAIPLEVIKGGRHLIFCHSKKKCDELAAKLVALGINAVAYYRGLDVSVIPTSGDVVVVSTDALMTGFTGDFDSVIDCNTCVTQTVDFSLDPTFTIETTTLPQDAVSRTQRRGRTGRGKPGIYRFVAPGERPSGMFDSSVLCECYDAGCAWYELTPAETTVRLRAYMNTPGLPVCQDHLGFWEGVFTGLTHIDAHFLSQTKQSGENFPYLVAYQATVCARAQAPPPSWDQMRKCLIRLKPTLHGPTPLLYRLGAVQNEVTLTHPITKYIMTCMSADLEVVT
# T1 sequence (P27958 1658-1711): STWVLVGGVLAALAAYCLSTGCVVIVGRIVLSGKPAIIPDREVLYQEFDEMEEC
Compound,IC50 (NS3-NS4 [1]),EC50 (NS3-NS4 [2])
O=C1N[C@]2(C(=O)NS(=O)(=O)C3CC3)C[C@H]2/C=C\CCCCC[C@H](Nc2nc(-c3cccnc3)cs2)C(=O)N2C[C@H](OC(=O)N3Cc4cccc(F)c4C3)C[C@@H]12 [Compound 214],< 100 nM,< 100 nM
O=C1N[C@]2(C(=O)NS(=O)(=O)C3CC3)C[C@H]2/C=C\CCCCC[C@H](Nc2nc(-c3cccc(F)c3)cs2)C(=O)N2C[C@H](OC(=O)N3Cc4cccc(F)c4C3)C[C@@H]12 [Compound 215],< 100 nM,< 100 nM
O=C1N[C@]2(C(=O)NS(=O)(=O)C3CC3)C[C@H]2/C=C\CCCCC[C@H](Nc2nc(-c3ccc(C(F)(F)F)cc3)cs2)C(=O)N2C[C@H](OC(=O)N3Cc4cccc(F)c4C3)C[C@@H]12 [Compound 216],< 100 nM,< 100 nM
O=C1N[C@]2(C(=O)NS(=O)(=O)C3CC3)C[C@H]2/C=C\CCCCC[C@H](Nc2nc(-c3nc4ccccc4s3)cs2)C(=O)N2C[C@H](OC(=O)N3Cc4cccc(F)c4C3)C[C@@H]12 [Compound 217],< 100 nM,< 100 nM
O=C1N[C@]2(C(=O)NS(=O)(=O)C3CC3)C[C@H]2/C=C\CCCCC[C@H](Nc2nc(-c3cccc(C(F)(F)F)c3)cs2)C(=O)N2C[C@H](OC(=O)N3Cc4cccc(F)c4C3)C[C@@H]12 [Compound 218],< 100 nM,< 100 nM
O=C1N[C@]2(C(=O)NS(=O)(=O)C3CC3)C[C@H]2/C=C\CCCCC[C@H](Nc2nc(-c3ccc(F)cc3F)cs2)C(=O)N2C[C@H](OC(=O)N3Cc4cccc(F)c4C3)C[C@@H]12 [Compound 219],< 100 nM,< 100 nM
O=C1N[C@]2(C(=O)NS(=O)(=O)C3CC3)C[C@H]2/C=C\CCCCC[C@H](Nc2nc(-c3ccc(Br)cc3)cs2)C(=O)N2C[C@H](OC(=O)N3Cc4cccc(F)c4C3)C[C@@H]12 [Compound 220],< 100 nM,< 100 nM
O=C1N[C@]2(C(=O)NS(=O)(=O)C3CC3)C[C@H]2/C=C\CCCCC[C@H](Nc2nc(-c3ccc(OC(F)(F)F)cc3)cs2)C(=O)N2C[C@H](OC(=O)N3Cc4cccc(F)c4C3)C[C@@H]12 [Compound 222],< 100 nM,< 100 nM
O=C1N[C@]2(C(=O)NS(=O)(=O)C3CC3)C[C@H]2/C=C\CCCCC[C@H](Nc2nc(-c3ccc(F)c(F)c3)cs2)C(=O)N2C[C@H](OC(=O)N3Cc4cccc(F)c4C3)C[C@@H]12 [Compound 223],< 100 nM,< 100 nM
O=C1NC2(C(=O)NS(=O)(=O)C3CC3)C[C@H]2/C=C\CCCCC[C@H](Nc2nc(-c3ccc(F)cc3)cs2)C(=O)N2C[C@H](OC(=O)N3Cc4cccc(F)c4C3)C[C@@H]12 (stereo partly shown) [Compound 224],< 100 nM,< 100 nM
O=C1N[C@]2(C(=O)NS(=O)(=O)C3CC3)C[C@H]2/C=C\CCCCC[C@H](Nc2nc(-c3ccc(F)cn3)cs2)C(=O)N2C[C@H](OC(=O)N3Cc4cccc(F)c4C3)C[C@@H]12 [Compound 225],< 100 nM,< 100 nM
Cc1cnc(N[C@H]2CCCCC/C=C\[C@@H]3C[C@@]3(C(=O)NS(=O)(=O)C3CC3)NC(=O)[C@@H]3C[C@@H](OC(=O)N4Cc5cccc(F)c5C4)CN3C2=O)s1 [Compound 226],< 100 nM,< 100 nM
Cc1csc(N[C@H]2CCCCC/C=C\[C@@H]3C[C@@]3(C(=O)NS(=O)(=O)C3CC3)NC(=O)[C@@H]3C[C@@H](OC(=O)N4Cc5cccc(F)c5C4)CN3C2=O)n1 [Compound 227],< 100 nM,< 100 nM
O=C1N[C@]2(C(=O)NS(=O)(=O)C3CC3)C[C@H]2/C=C\CCCCC[C@H](Nc2nc(-c3ccc(F)cn3)cs2)C(=O)N2C[C@H](OC(=O)N3Cc4cccc(Cl)c4C3)C[C@@H]12 [Compound 228],< 100 nM,< 100 nM
O=C1N[C@]2(C(=O)NS(=O)(=O)C3CC3)C[C@H]2/C=C\CCCCC[C@H](Nc2nc(-c3ccc(F)cn3)cs2)C(=O)N2C[C@H](OC(=O)N3CCc4ccccc4C3)C[C@@H]12 [Compound 229],< 100 nM,< 100 nM
CCc1cnc(N[C@H]2CCCCC/C=C\[C@@H]3C[C@@]3(C(=O)NS(=O)(=O)C3CC3)NC(=O)[C@@H]3C[C@@H](OC(=O)N4Cc5cccc(F)c5C4)CN3C2=O)s1 [Compound 230],< 100 nM,< 100 nM
Cc1nc(N[C@H]2CCCCC/C=C\[C@@H]3C[C@@]3(C(=O)NS(=O)(=O)C3CC3)NC(=O)[C@@H]3C[C@@H](OC(=O)N4Cc5cccc(F)c5C4)CN3C2=O)sc1C [Compound 231],< 100 nM,< 100 nM
O=C1N[C@]2(C(=O)NS(=O)(=O)C3CC3)C[C@H]2/C=C\CCCCC[C@H](Nc2nc(-c3ccc(F)cc3)cs2)C(=O)N2C[C@H](OC(=O)N3CCc4ccccc4C3)C[C@@H]12 [Compound 232],< 100 nM,< 100 nM

Compound,IC50 (NS3-NS4 [1]),EC50 (NS3-NS4 [2])
CC(=O)O[C@@H]1C[C@H]2C(=O)N[C@]3(C(=O)NS(=O)(=O)C4CC4)C[C@H]3/C=C\CCCCC[C@H](Nc3nc(-c4ccc(F)cc4)cs3)C(=O)N2C1 [Compound 233],< 100 nM,100 to 1000 nM
CC(=O)O[C@@H]1C[C@H]2C(=O)N[C@]3(C(=O)NS(=O)(=O)C4CC4)C[C@H]3/C=C\CCCCC[C@H](Nc3nc(-c4ccccc4)c(-c4ccccc4)s3)C(=O)N2C1 [Compound 235],< 100 nM,100 to 1000 nM
CC(=O)O[C@@H]1C[C@H]2C(=O)N[C@]3(C(=O)NS(=O)(=O)C4CC4)C[C@H]3/C=C\CCCCC[C@H](Nc3nc(-c4ccc(F)cc4)c(C)s3)C(=O)N2C1 [Compound 239],< 100 nM,100 to 1000 nM
CC(C)(C)O[C@@H]1C[C@H]2C(=O)N[C@]3(C(=O)NS(=O)(=O)C4CC4)C[C@H]3/C=C\CCCCC[C@H](Nc3nc(-c4ccccc4)c(-c4ccccc4)s3)C(=O)N2C1 [Compound 242],< 100 nM,1000 to 10000 nM
"Cc1ccc(S(=O)(=O)NC(=O)[C@@]23C[C@H]2/C=C\CCCCC[C@H](NC(=O)OC(C)(C)C)C(=O)N2C[C@H](OC(=O)N4Cc5cccc(F)c5C4)C[C@H]2C(=O)N3)cc1F [Compound 301, (2R,6S,13aS,14aR,16aS,Z)-6-(tert-butoxycarbonylamino)-14a-(3-fluoro-4-methylphenylsulfonylcarbamoyl)-5,16-dioxo-1,2,3,5,6,7,8,9,10,11,13a,14,14a,15,16,16a-hexadecahydrocyclopropa[e]pyrrolo[1,2-a][1,4]diazacyclopentadecin-2-yl 4-fluoroisoindoline-2-carboxylate]",< 100 nM,< 100 nM
"Cc1cc(S(=O)(=O)NC(=O)[C@@]23C[C@H]2/C=C\CCCCC[C@H](NC(=O)OC(C)(C)C)C(=O)N2C[C@H](OC(=O)N4Cc5cccc(F)c5C4)C[C@H]2C(=O)N3)c(C)s1 [Compound 302, (2R,6S,13aS,14aR,16aS,Z)-6-(tert-butoxycarbonylamino)-14a-(2,5-dimethylthiophen-3-ylsulfonylcarbamoyl)-5,16-dioxo-1,2,3,5,6,7,8,9,10,11,13a,14,14a,15,16,16a-hexadecahydrocyclopropa[e]pyrrolo[1,2-a][1,4]diazacyclopentadecin-2-yl 4-fluoroisoindoline-2-carboxylate]",< 100 nM,< 100 nM
"CN(C(=O)N[C@H]1CCCCC/C=C\[C@@H]2C[C@@]2(C(=O)NS(=O)(=O)c2ccccc2)NC(=O)[C@@H]2C[C@@H](OC(=O)N3Cc4cccc(F)c4C3)CN2C1=O)C(C)(C)C [Compound 303, (2R,6S,13aS,14aR,16aS,Z)-6-(3-tert-butyl-3-methylureido)-5,16-dioxo-14a-(phenylsulfonylcarbamoyl)-1,2,3,5,6,7,8,9,10,11,13a,14,14a,15,16,16a-hexadecahydrocyclopropa[e]pyrrolo[1,2-a][1,4]diazacyclopentadecin-2-yl 4-fluoroisoindoline-2-carboxylate]",< 100 nM,< 100 nM
CC(C)(C)OC(=O)N[C@H]1CCCCC/C=C\[C@@H]2C[C@@]2(C(=O)NS(=O)(=O)c2c(F)cccc2F)NC(=O)[C@@H]2C[C@@H](OC(=O)N3Cc4cccc(F)c4C3)CN2C1=O [Compound 306],< 100 nM,100 to 1000 nM
CC(C)(C)OC(=O)N[C@H]1CCCCC/C=C\[C@@H]2C[C@@]2(C(=O)NS(=O)(=O)c2cc(F)ccc2F)NC(=O)[C@@H]2C[C@@H](OC(=O)N3Cc4cccc(F)c4C3)CN2C1=O [Compound 307],< 100 nM,< 100 nM
CC(C)(C)OC(=O)N[C@H]1CCCCC/C=C\[C@@H]2C[C@@]2(C(=O)NS(=O)(=O)c2cccc(C(F)(F)F)c2)NC(=O)[C@@H]2C[C@@H](OC(=O)N3Cc4cccc(F)c4C3)CN2C1=O [Compound 308],< 100 nM,< 100 nM
CC(C)(C)OC(=O)N[C@H]1CCCCC/C=C\[C@@H]2C[C@@]2(C(=O)NS(=O)(=O)c2cc(F)cc(F)c2)NC(=O)[C@@H]2C[C@@H](OC(=O)N3Cc4cccc(F)c4C3)CN2C1=O [Compound 309],< 100 nM,< 100 nM
CC(C)(C)OC(=O)N[C@H]1CCCCC/C=C\[C@@H]2C[C@@]2(C(=O)NS(=O)(=O)c2ccc(F)cc2F)NC(=O)[C@@H]2C[C@@H](OC(=O)N3Cc4cccc(F)c4C3)CN2C1=O [Compound 310],< 100 nM,< 100 nM
CC(C)(C)OC(=O)N[C@H]1CCCCC/C=C\[C@@H]2C[C@@]2(C(=O)NS(=O)(=O)c2c(Cl)cccc2Cl)NC(=O)[C@@H]2C[C@@H](OC(=O)N3Cc4cccc(F)c4C3)CN2C1=O [Compound 311],< 100 nM,100 to 1000 nM
Cc1ccc(S(=O)(=O)NC(=O)[C@@]23C[C@H]2/C=C\CCCCC[C@H](NC(=O)OC(C)(C)C)C(=O)N2C[C@H](OC(=O)N4Cc5cccc(F)c5C4)C[C@H]2C(=O)N3)cc1Cl [Compound 312],< 100 nM,100 to 1000 nM
Cc1ccc(C)c(S(=O)(=O)NC(=O)[C@@]23C[C@H]2/C=C\CCCCC[C@H](NC(=O)OC(C)(C)C)C(=O)N2C[C@H](OC(=O)N4Cc5cccc(F)c5C4)C[C@H]2C(=O)N3)c1 [Compound 313],< 100 nM,< 100 nM
CC(C)(C)OC(=O)N[C@H]1CCCCC/C=C\[C@@H]2C[C@@]2(C(=O)NS(=O)(=O)c2cc(Cl)ccc2F)NC(=O)[C@@H]2C[C@@H](OC(=O)N3Cc4cccc(F)c4C3)CN2C1=O [Compound 314],< 100 nM,< 100 nM
CC(C)(C)OC(=O)N[C@H]1CCCCC/C=C\[C@@H]2C[C@@]2(C(=O)NS(=O)(=O)c2ccc(F)c(F)c2)NC(=O)[C@@H]2C[C@@H](OC(=O)N3Cc4cccc(F)c4C3)CN2C1=O [Compound 315],< 100 nM,< 100 nM

# Reference: patent publication US20090155209A1, “NOVEL MACROCYCLIC INHIBITORS OF HEPATITIS C VIRUS REPLICATION” (priority 2007, published 2009)
